Assay results as given in patent US12702654B2, “Compositions and methods for treating homocystinuria and other conditions using polyamines” (THE REGENTS OF THE UNIVERSITY OF COLORADO, priority 2020, dated 2026).

How the values were obtained:
[1] = system: HO HCU mice; assay: Hepatic metabolomic analysis / hepatic 5-methylTHF in HO HCU mice; type: in vivo, mouse
Description: As illustrated in one example, see FIG. 2, HCU (HO) induced a significant accumulation of hepatic 5-methyl-THF which by sequestering one carbon units had the potential to decrease the available pool of THF available to the betaine pathway for lowering Hcy. FIG. 2 illustrates an example of hepatic metabolomic analysis of HO and WT controls compared to an HO mouse treated with betaine. Comparative hepatic metabolomic analysis of HO mice and WT controls illustrated about a 10-fold accumulation in the MTHFR product 5-MeTHF. Betaine treatment alone reduced 5-MeTHF by about 15-25%. Data illustrated in FIG. 2 was derived from the livers of 8 (4 male, 4 female) individual HO or WT or HO Betaine mice per group. Betaine was given at 2% w/v in drinking water given ad libitum. P<0.0001 vs WT.
A comparative reference data set was generated for these mice by examining plasma levels of tHcy, methionine, cysteine, serine, glycine, dimethylglycine, methylglycine (MG, SAM and SAH). In brief, determination of plasma levels of amino acids relevant to the methionine cycle were determined using methods similar to those described in Stabler et al., Blood. 81 (1993) 3404-3413, incorporated in its entirety herein. Determination of hepatic 5-methylTHF was performed by liquid chromatography-tandem mass spectrometry using methods similar to those described in Witham et al., PLoS One. 8 (2013) e77923, incorporated in its entirety herein. The global metabolomic analysis of methionine and folate cycle related metabolites was carried out by Metabolon, Inc. Briefly, sample preparation was performed utilizing the automated MicroLab STAR® system. Sample preparation was performed using a proprietary series of organic and aqueous extractions to remove the protein fraction while allowing maximum recovery of small molecules. The resulting extract was divided into two fractions: one for analysis by liquid chromatography and one for analysis by gas chromatography. Each sample was then frozen and dried under vacuum. The LC/mass spectrometer portion of the platform was based on a Waters ACQUITY UPLC and a Thermo-Finnigan LTQ mass spectrometer, which consisted of an electrospray ionization source and linear ion-trap mass analyzer. Samples were analyzed on a Thermo-Finnigan Trace DSQ fast-scanning single-quadrupole mass spectrometer using electron impact ionization. Identification of known chemical entities was based on comparison to library entries of authenticated standards. Tissue polyamines putrescine, spermidine and spermine and 5-methylthioadenosine (MTA) were determined by liquid chromatography-tandem mass spectrometry using methods similar to those described in Stevens et al., J Chromatogr A 1217 (2010) 3282-3288, incorporated in its entirety herein.

[2] = system: DHFR; assay: Western blotting of hepatic DHFR protein levels; type: in vivo, mouse; conditions: HO mice, betaine treated; not restored to control levels
Method: In other exemplary experiments, levels of DHFR were assessed using the HO mouse model in untreated and betaine treated mice. […] In addition, level of intensity of DHFR for wild type (WT), treated (HO+betaine) and untreated mice (HO) using the HCU mouse model was examined (FIG. 4B). It was noted that the level of DHFR in betaine treated mice was not restored to control levels and only about a 5-10% improvement was observed (FIG. 4B). (See FIGS. 4A-4B). As noted herein, Western blotting analysis of hepatic DHFR protein levels in WT and HO HCU mice. N=9 per group.

[3] = system: SAHH; assay: Western blotting of hepatic SAHH expression; type: in vivo, mouse; conditions: HO mice, 30 g/l in drinking water ad libitum, one week
Method: (§1) To investigate the effects of these treatments upon the hepatic regulatory changes in enzyme expression induced by HCU, the human transgenic HO mouse model of HCU was used. In brief, experimental groups consisting of 8 HO mice on a C57BL/6J background and 8 C57BL/6J WT littermate control mice bred in house were used. Mice in both groups were male and aged between 3 and 4 months. Except where otherwise stated, all mice were maintained on standard chow. All diets were administered using a paired-feeding design to ensure isocaloric intake between all experimental groups and body weights were measured once per week. There was no significant difference in body weight between mice in any of the experimental groups. Betaine and taurine were in this example, both administered by dissolving these compounds in drinking water at 30 g/l (2% or 3% w/v) and were supplied ad libitum for one week. Treatment water was replenished twice per week.
(§2) Western blotting analysis of SAHH, MTHFR and SHMT2 expression was performed in liver samples from HO mice in the presence and absence of betaine or taurine treatment.

[4] = system: SHMT2; assay: Western blotting of hepatic SHMT2 expression; type: in vivo, mouse; conditions: HO mice, 30 g/l in drinking water ad libitum, one week
Method: as §1, §2

[5] = mouse, in vivo
Method: (§3) In another exemplary method, the transsulfuration pathway and methionine-folate cycle pathways, as show in the sematic illustrated in FIG. 18A, were assessed. In brief, three experimental groups (n=8 for each group) of male mice consisting of either untreated WT controls or HO HCU mice in the presence or absence of betaine treatment. Betaine was administered by dissolving the compound in drinking water at 30 g/l and was supplied ad libitum to the mice for one week. Treatment water was replenished twice per week.
as §1, with “Betaine and taurine were in this example, both administered by dissolving these compounds in drinking water at 30 g/l (2% or 3% w/v) and were supplied ad libitum for one week. Treatment water was replenished twice per week.” left out

[6] = system: ApoA-1; assay: ApoA-1 expression in HO model; type: in vivo, mouse; conditions: one-week treatment protocol
Method: as §3

[7] = system: HO HCU mice; conditions: earlier study, cited from earlier work
[8] = HO HCU mice, one week of betaine treatment

C[N+](C)(C)CC(=O)O [betaine, N,N,N-trimethylglycine]
HCU-induced decrease in hepatic N-acetylcysteine [1, 8]: reversed
HCU-induced decrease in hepatic cysteine [1, 8]: reversed
hepatic N-acetylserine [1, 8]: Neither of these metabolites were significantly altered
hepatic SAH [1, 8]: did not change significantly
hepatic SAM [1, 8]: did not change significantly
hepatic methionine compared to untreated HO mice [1, 8]: no detectable effect
hepatic serine [1, 8]: Neither of these metabolites were significantly altered
increase of hepatic DMG [1, 8]: 3 to 4 fold
increase of hepatic MG [1, 8]: 3 to 4 fold
lowering of hepatic N-acetlymethionine compared to untreated HO HCU mice [1, 8]: 23%
lowering of hepatic tHcy [1, 8]: approximately 20%
reduction of hepatic 5-MeTHF ([1]; HO mice, betaine 2% w/v in drinking water ad libitum): 15-25%
improvement of hepatic DHFR level [2]: 5-10%
HCU-mediated induction of hepatic SAHH expression [3]: completely reversed
HCU-induced repression of hepatic SHMT2 [4]: completely reversed
tolerability of doses [5]: well tolerated
ApoA-1 expression [6]: increase ApoA-1 expression
hypercoagulative phenotype after a longer period of treatment ([7]; HCU mice, longer period of betaine treatment): return to the hypercoagulative phenotype
hypercoagulative phenotype ([7]; mouse model of HCU, betaine treatment): significantly ameliorated the hypercoagulative phenotype
